According to patent US9567302B2, “Carbamate compounds and of making and using same” (Abide Therapeutics, Inc., priority 2012, dated 2017):

Columns and labels:
Assay type in all cases: biochemical
Set-up in all cases: from tissue; host or cells: mouse brain membrane fraction
Settings in all cases: 30 min preincubation at 37° C.
[1] = target: T1, MAGL (Mus musculus, UniProt O35678); assay: In vitro competitive activity-based protein profiling (FP-Rh), mouse MAGL
T1 sequence (O35678 1-303): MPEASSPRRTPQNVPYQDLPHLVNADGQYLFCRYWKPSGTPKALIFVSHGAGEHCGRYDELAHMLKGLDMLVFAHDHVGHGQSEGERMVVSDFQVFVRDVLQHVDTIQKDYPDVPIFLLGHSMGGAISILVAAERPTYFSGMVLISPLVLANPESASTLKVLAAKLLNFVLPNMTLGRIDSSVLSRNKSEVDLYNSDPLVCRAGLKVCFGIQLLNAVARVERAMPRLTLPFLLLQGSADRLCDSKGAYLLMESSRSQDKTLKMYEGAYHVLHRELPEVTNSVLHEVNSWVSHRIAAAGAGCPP
Description: (§1) In Vitro Competitive Activity-Based Protein Profiling.
(§2) Proteomes (mouse brain membrane fraction or cell lysates) (50 μL, 1.0 mg/ml total protein concentration) were preincubated with varying concentrations of inhibitors at 37° C. After 30 min, FP-Rh (1.0 μL, 50 μM in DMSO) was added and the mixture was incubated for another 30 min at 37° C. Reactions were quenched with SDS loading buffer (50 μL—4×) and run on SDS-PAGE.

[2] = target: T2, FAAH (Mus musculus, UniProt O08914); assay: In vitro competitive activity-based protein profiling (FP-Rh), mouse FAAH
T2 sequence (O08914 1-579): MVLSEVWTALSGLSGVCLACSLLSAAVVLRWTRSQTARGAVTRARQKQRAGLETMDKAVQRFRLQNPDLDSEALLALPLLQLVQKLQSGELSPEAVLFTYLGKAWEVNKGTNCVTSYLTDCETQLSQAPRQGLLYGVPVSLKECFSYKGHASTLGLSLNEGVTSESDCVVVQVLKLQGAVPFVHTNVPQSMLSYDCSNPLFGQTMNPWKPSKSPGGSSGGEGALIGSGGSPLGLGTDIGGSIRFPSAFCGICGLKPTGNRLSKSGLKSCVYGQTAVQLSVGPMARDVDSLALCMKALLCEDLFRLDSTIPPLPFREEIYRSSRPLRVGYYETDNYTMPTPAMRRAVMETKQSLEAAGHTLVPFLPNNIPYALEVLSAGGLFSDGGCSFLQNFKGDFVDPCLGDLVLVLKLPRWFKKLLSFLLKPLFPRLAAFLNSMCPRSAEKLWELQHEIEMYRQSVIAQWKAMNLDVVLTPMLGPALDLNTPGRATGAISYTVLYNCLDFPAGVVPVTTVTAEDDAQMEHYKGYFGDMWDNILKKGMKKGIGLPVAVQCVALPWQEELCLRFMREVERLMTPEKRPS
Description: as §1, §2

[3] = target: T3, ABHD6 (Mus musculus, UniProt Q8R2Y0); assay: In vitro competitive activity-based protein profiling (FP-Rh), mouse ABHD6
T3 sequence (Q8R2Y0 1-336): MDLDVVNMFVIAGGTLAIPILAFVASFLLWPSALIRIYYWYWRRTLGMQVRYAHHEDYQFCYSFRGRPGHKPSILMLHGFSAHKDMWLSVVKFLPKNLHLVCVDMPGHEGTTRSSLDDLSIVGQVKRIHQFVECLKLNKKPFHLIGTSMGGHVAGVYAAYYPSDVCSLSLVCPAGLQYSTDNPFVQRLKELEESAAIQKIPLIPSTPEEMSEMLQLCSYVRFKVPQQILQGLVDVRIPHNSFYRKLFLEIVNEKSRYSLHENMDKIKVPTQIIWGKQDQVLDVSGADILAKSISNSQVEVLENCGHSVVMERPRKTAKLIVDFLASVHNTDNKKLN
Description: as §1, §2

Row | IC50 ([1]; Table 1, mouse proteome) | IC50 ([2]; Table 1, mouse proteome) | IC50 ([3]; Table 1, mouse proteome) | IC50 ([1]; Table 2, mouse proteome) | IC50 ([2]; Table 2, mouse proteome) | IC50 ([3]; Table 2, mouse proteome) | Structure (SMILES)
1 |  |  |  | 1000 to 10000 nM | > 10000 nM | 1000 to 10000 nM | O=C(ON1C(=O)CCC1=O)N1CCN(Cc2ccc(N3CCOCC3)cc2F)CC1 [Example 62, 2,5-Dioxopyrrolidin-1-yl 4-(2-fluoro-4-morpholinobenzyl)-piperazine-1-carboxylate]
2 |  |  |  | < 100 nM | 1000 to 10000 nM | 100 to 1000 nM | O=C(ON1C(=O)CCC1=O)N1CCN(Cc2ccc(Br)cc2N2CCCCC2)CC1 [Example 65, 2,5-Dioxopyrrolidin-1-yl 4-(4-bromo-2-(piperidin-1-yl)benzyl)piperazine-1-carboxylate]
3 |  |  |  | < 100 nM | 1000 to 10000 nM | 1000 to 10000 nM | O=C(ON1C(=O)CCC1=O)N1CCN(Cc2ccc(Br)cc2N2CCOCC2)CC1 [Example 66, 2,5-Dioxopyrrolidin-1-yl 4-(4-bromo-2-morpholinobenzyl)piperazine-1-carboxylate]
4 |  |  |  | 1000 to 10000 nM | 1000 to 10000 nM | 1000 to 10000 nM | COc1cc(N2CCOCC2)ccc1CN1CCN(C(=O)ON2C(=O)CCC2=O)CC1 [Example 67, 2,5-Dioxopyrrolidin-1-yl 4-(2-methoxy-4-morpholinobenzyl)piperazine-1-carboxylate]
5 |  |  |  | 100 to 1000 nM | 1000 to 10000 nM | 100 to 1000 nM | Cc1cc(N2CCCC2)ccc1CN1CCN(C(=O)ON2C(=O)CCC2=O)CC1 [Example 68, 2,5-Dioxopyrrolidin-1-yl 4-(2-methyl-4-(pyrrolidin-1-yl)benzyl)piperazine-1-carboxylate]
6 |  |  |  | < 100 nM | 1000 to 10000 nM | 100 to 1000 nM | O=C(ON1C(=O)CCC1=O)N1CCN(Cc2ccc(Cl)cc2N2CCOCC2)CC1 [Example 69, 2,5-Dioxopyrrolidin-1-yl 4-(4-chloro-2-morpholinobenzyl)piperazine-1-carboxylate]
7 |  |  |  | 100 to 1000 nM | 1000 to 10000 nM | 1000 to 10000 nM | Cc1ccc(CN2CCN(C(=O)ON3C(=O)CCC3=O)CC2)cc1 [Example 71, 2,5-Dioxopyrrolidin-1-yl 4-(4-methylbenzyl)piperazine-1-carboxylate]
8 |  |  |  | < 100 nM | > 10000 nM | 100 to 1000 nM | O=C(ON1C(=O)CCC1=O)N1CCN(Cc2ccc(Cl)cc2N2CCCC2)CC1 [Example 74, 2,5-Dioxopyrrolidin-1-yl 4-(4-chloro-2-(pyrrolidin-1-yl)benzyl)piperazine-1-carboxylate]
9 |  |  |  | 100 to 1000 nM | > 10000 nM | 1000 to 10000 nM | O=C(ON1C(=O)CCC1=O)N1CCN(Cc2ccc(N3CCCC3)c(F)c2)CC1 [Example 75, 2,5-Dioxopyrrolidin-1-yl 4-(3-fluoro-4-(pyrrolidin-1-yl)benzyl)piperazine-1-carboxylate]
10 |  |  |  | < 100 nM | 1000 to 10000 nM | < 100 nM | O=C(ON1C(=O)CCC1=O)N1CCN(Cc2ccc(N3CCCC3)cc2Cl)CC1 [Example 78, 2,5-Dioxopyrrolidin-1-yl 4-(2-chloro-4-(pyrrolidin-1-yl)benzyl)piperazine-1-carboxylate]
11 |  |  |  | 100 to 1000 nM | > 10000 nM | 1000 to 10000 nM | O=C(ON1C(=O)CCC1=O)N1CCN(Cc2cccc(Cl)c2N2CCOCC2)CC1 [Example 82, 2,5-Dioxopyrrolidin-1-yl 4-{[3-chloro-2-(morpholin-4-yl)phenyl]methyl}piperazine-1-carboxylate]
12 |  |  |  | 100 to 1000 nM | > 10000 nM | 100 to 1000 nM | O=C(ON1C(=O)CCC1=O)N1CCN(Cc2cccc(N3CCOCC3)c2)CC1 [Example 83, 2,5-Dioxopyrrolidin-1-yl 4-(3-morpholinobenzyl)piperazine-1-carboxylate]
13 |  |  |  | 100 to 1000 nM | > 10000 nM | 1000 to 10000 nM | O=C(ON1C(=O)CCC1=O)N1CCN(Cc2ccc(Cl)cc2-n2cccn2)CC1 [Example 84, 2,5-Dioxopyrrolidin-1-yl 4-(4-chloro-2-(1H-pyrazol-1-yl)benzyl)piperazine-1-carboxylate]
14 |  |  |  | < 100 nM | > 10000 nM | 1000 to 10000 nM | CC(=O)NC1CCN(c2cc(Cl)ccc2CN2CCN(C(=O)ON3C(=O)CCC3=O)CC2)C1 (stereo not drawn) [Example 85, 2,5-Dioxopyrrolidin-1-yl 4-(2-(3-acetamidopyrrolidin-1-yl)-4-chlorobenzyl)piperazine-1-carboxylate]
15 |  |  |  | < 100 nM | > 10000 nM | 100 to 1000 nM | O=C(ON1C(=O)CCC1=O)N1CCN(Cc2ccc(C(F)(F)F)cc2N2CCOCC2)CC1 [Example 91, 2,5-Dioxopyrrolidin-1-yl 4-{[2-(morpholin-4-yl)-4-(trifluoromethyl)phenyl]methyl}piperazine-1-carboxylate]

More lines, now with the values behind:

Row | Structure (SMILES) | IC50 ([1]; Table 1, mouse proteome) | IC50 ([2]; Table 1, mouse proteome) | IC50 ([3]; Table 1, mouse proteome) | IC50 ([1]; Table 2, mouse proteome) | IC50 ([2]; Table 2, mouse proteome) | IC50 ([3]; Table 2, mouse proteome)
16 | CN1CC(=O)N(OC(=O)N2CCC(CCc3ccc(Cl)cc3)CC2)C1=O [Example 49, 3-Methyl-2,5-dioxoimidazolidin-1-yl 4-(4-chlorophenethyl)piperidine-1-carboxylate] | < 100 nM | 100 to 1000 nM | < 100 nM |  |  | 
17 | O=C(ON1C(=O)CN(Cc2ccccc2)C1=O)N1CCC(CCc2ccc(Cl)cc2)CC1 [Example 50, 3-Benzyl-2,5-dioxoimidazolidin-1-yl 4-(4-chlorophenethyl)piperidine-1-carboxylate] | 100 to 1000 nM | < 100 nM | < 100 nM |  |  | 
18 | COc1ccc(N2CCN(C(=O)ON3C(=O)CC(C)(C)C3=O)CC2)cc1 [Example 52, 3,3-Dimethyl-2,5-dioxopyrrolidin-1-yl 4-(4-methoxyphenyl)piperazine-1-carboxylate] | > 10000 nM | > 10000 nM | 100 to 1000 nM |  |  | 
19 | COc1ccc(N2CCN(C(=O)ON3C(=O)C4CCCCC4C3=O)CC2)cc1 (stereo not drawn) [Example 53, 1,3-Dioxohexahydro-1H-isoindol-2(3H)-yl 4-(4-methoxyphenyl)piperazine-1-carboxylate] | > 10000 nM | > 10000 nM | < 100 nM |  |  | 
20 | COc1ccc(N2CCN(C(=O)ON3C(=O)CC(c4ccccc4)C3=O)CC2)cc1 (stereo not drawn) [Example 54, 2,5-Dioxo-3-phenylpyrrolidin-1-yl 4-(4-methoxyphenyl)piperazine-1-carboxylate] | 1000 to 10000 nM | 1000 to 10000 nM | < 100 nM |  |  | 
21 | COc1ccc(N2CCN(C(=O)ON3C(=O)NC(C(C)C)C3=O)CC2)cc1 (stereo not drawn) [Example 55, 4-Isopropyl-2,5-dioxoimidazolidin-1-yl 4-(4-methoxyphenyl)piperazine-1-carboxylate] | > 10000 nM | 1000 to 10000 nM | < 100 nM |  |  | 
22 | CN1CC(=O)N(OC(=O)N2CCN(C(c3ccc(Cl)cc3)c3ccc(Cl)cc3)CC2)C1=O [Example 56, 3-Methyl-2,5-dioxoimidazolidin-1-yl 4-(bis(4-chlorophenyl)methyl)piperazine-1-carboxylate] | < 100 nM | > 10000 nM | 100 to 1000 nM |  |  | 
23 | CN(C)C(=O)ON1C(=O)CCC1=O [Example 57, 2,5-Dioxopyrrolidin-1-yl dimethylcarbamate] | > 10000 nM | > 10000 nM | > 10000 nM |  |  | 
24 | CN(C)C(=O)ON1C(=O)CC(c2ccccc2)C1=O (stereo not drawn) [Example 59, 2,5-Dioxo-3-phenylpyrrolidin-1-yl dimethylcarbamate] | > 10000 nM | > 10000 nM | > 10000 nM |  |  | 
25 | O=C(ON1C(=O)CC(c2ccccc2)C1=O)N1CCCCC1 (stereo not drawn) [Example 60, 2,5-Dioxo-3-phenylpyrrolidin-1-yl piperidine-1-carboxylate] | > 10000 nM | > 10000 nM | > 10000 nM |  |  | 
26 | O=C(ON1C(=O)CNC1=O)N1CCCCC1 [Example 61, 2,5-Dioxoimidazolidin-1-yl piperidine-1-carboxylate] | > 10000 nM | > 10000 nM | > 10000 nM |  |  | 
27 | COc1ccc(CN2CCN(C(=O)ON3C(=O)CCC3=O)CC2)cc1 [Example 70, 2,5-Dioxopyrrolidin-1-yl 4-(4-methoxybenzyl)piperazine-1-carboxylate] |  |  |  | 1000 to 10000 nM | 1000 to 10000 nM | 1000 to 10000 nM
